Measurements reported in patent publication US11324729B2, “NSD family inhibitors and methods of treatment therewith” (The Regents of the University of Michigan, priority 2017, dated 2022).
Where two headings read alike, the source gives them in different places.

Assays:
NSD1 [1] = target: T1, NSD1 (Homo sapiens, UniProt Q96L73); experiment: Mass spectrometry detection of covalent/irreversible binding to NSD1
T1 construct: 6 μM of 159 was incubated with 1 mM of NSD1 SET domain for 8 hours
T1 sequence (Q96L73 1852-2082 limits assumed): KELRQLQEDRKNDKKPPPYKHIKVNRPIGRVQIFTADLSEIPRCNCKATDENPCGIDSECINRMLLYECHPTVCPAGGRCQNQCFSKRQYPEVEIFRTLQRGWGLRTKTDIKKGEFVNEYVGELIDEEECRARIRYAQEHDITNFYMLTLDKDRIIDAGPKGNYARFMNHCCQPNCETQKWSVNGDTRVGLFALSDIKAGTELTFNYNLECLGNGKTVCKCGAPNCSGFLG
Protocol: (§1) 10 μM 151 was incubated with NSD1 for 20 h. B. HSQC spectrum of 150 μM NSD1 with 300 μM 151.
6 μM of 159 was incubated with 1 mM of NSD1 SET domain for 8 hours.
FIG. 7. […] Asterisk denotes covalent protein adduct with 198.

NSD1 [2] = target: NSD1 (Homo sapiens, UniProt Q96L73); experiment: HSQC NMR spectrum of NSD1 with compound; assay type: binding; conditions: 150 μM NSD1 with 300 μM compound; including Cys2062
Protocol: as §1
Target sequence in this assay (Q96L73 whole entry, the tested form may be a part): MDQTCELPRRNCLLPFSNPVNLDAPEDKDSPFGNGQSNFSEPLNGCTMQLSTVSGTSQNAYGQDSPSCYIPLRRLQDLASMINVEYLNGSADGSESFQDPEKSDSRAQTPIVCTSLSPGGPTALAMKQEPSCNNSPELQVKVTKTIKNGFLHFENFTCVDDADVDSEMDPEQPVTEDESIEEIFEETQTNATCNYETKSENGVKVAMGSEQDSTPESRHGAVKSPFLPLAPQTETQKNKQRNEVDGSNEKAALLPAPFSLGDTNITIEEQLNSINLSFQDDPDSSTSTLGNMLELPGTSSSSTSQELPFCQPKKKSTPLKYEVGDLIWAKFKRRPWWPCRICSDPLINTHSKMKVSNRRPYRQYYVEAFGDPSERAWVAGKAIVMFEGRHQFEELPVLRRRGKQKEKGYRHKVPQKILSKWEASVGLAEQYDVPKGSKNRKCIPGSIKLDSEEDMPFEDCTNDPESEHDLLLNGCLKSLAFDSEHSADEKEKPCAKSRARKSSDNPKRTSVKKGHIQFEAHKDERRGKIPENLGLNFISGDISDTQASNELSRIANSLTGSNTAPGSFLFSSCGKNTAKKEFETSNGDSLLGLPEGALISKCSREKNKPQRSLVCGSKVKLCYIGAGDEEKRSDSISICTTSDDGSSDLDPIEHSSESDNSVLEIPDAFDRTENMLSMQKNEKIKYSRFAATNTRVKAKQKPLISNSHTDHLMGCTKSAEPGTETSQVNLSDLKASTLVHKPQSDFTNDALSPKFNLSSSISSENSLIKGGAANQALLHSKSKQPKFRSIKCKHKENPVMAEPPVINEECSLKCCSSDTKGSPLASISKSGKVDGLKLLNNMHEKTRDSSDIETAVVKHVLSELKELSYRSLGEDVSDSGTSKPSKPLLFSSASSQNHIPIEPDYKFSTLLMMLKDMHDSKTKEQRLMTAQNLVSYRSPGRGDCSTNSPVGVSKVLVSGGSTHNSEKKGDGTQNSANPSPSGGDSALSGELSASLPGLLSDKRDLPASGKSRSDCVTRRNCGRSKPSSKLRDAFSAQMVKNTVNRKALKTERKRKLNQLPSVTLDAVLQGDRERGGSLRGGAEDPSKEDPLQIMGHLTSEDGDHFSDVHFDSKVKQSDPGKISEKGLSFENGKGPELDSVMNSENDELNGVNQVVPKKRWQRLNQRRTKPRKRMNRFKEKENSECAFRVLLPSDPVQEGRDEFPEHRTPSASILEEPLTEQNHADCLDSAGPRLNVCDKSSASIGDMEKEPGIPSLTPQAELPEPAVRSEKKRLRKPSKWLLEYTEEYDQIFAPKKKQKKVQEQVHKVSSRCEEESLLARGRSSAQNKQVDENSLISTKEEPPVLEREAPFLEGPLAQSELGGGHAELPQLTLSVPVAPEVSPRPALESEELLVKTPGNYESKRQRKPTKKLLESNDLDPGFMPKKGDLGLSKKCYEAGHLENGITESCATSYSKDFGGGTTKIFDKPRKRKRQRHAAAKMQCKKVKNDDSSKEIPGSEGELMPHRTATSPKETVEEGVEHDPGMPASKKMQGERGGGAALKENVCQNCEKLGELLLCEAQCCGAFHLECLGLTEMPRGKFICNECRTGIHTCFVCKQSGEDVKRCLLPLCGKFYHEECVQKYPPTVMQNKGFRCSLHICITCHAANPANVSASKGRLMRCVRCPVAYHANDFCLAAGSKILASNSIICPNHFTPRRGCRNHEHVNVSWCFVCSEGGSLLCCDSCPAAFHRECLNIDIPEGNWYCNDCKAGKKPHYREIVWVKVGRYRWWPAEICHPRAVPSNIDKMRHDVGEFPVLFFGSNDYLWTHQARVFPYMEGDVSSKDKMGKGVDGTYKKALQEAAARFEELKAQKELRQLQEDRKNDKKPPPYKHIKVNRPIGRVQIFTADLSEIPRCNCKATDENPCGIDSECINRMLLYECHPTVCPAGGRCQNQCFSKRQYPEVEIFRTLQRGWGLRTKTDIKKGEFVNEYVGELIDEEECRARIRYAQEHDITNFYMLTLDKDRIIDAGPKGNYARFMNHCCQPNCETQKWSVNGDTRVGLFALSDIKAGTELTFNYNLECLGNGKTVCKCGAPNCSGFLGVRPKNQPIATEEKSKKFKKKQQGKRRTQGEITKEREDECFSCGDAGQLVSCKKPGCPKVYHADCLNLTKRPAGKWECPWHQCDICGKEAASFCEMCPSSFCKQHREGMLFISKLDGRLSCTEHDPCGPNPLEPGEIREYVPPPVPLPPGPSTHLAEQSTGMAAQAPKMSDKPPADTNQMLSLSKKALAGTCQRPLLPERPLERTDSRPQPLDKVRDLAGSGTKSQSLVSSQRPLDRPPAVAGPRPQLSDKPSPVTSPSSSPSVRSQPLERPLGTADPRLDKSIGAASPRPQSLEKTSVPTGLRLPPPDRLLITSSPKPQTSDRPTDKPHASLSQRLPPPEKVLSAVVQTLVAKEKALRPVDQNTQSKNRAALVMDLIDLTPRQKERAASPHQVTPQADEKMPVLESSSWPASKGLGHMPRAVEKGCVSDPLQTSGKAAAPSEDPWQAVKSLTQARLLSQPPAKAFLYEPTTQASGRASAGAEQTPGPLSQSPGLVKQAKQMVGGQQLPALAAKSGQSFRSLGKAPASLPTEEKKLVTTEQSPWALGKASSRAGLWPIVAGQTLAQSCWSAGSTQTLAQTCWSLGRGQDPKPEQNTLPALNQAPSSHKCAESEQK

[3] = target: T2, NSD1 (1753-2095 fragment) (Homo sapiens, UniProt Q96L73); experiment: CETSA assay in HeLa cells; assay type: cell-based; conditions: HeLa cells treated with 5 μM compound
T2 construct: expressed in transfected cells; host or cells: HeLa cells
T2 sequence (Q96L73 1753-2095): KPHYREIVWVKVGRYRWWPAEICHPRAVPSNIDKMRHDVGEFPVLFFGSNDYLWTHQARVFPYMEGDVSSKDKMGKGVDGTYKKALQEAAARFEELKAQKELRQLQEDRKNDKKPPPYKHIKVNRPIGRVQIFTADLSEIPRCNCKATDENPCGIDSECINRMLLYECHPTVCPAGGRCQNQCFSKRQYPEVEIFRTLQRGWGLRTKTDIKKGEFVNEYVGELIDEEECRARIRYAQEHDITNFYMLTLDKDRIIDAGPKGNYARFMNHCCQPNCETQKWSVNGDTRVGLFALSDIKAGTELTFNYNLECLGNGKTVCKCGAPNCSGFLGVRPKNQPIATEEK

Nup98-NSD1 cells [4] = experiment: MTT growth inhibition assay, Nup98-NSD1 cells; assay type: cell-based; conditions: 3, 7 and 10 days
HM-2 cells = experiment: MTT proliferation assay, control HM-2 cells; assay type: cell-based
Nup98-NSD1 cells [5] = experiment: Cytospins, differentiation of Nup98-NSD1 cells; assay type: cell-based
[6] = test system: Nup98-NSD1 subcutaneous model; experiment: Nup98-NSD1 subcutaneous leukemia model in mice; assay type: in vivo; conditions: 25 mg/kg q.d., I.P.
Protocol: FIG. 6A-F. Pharmacokinetics and efficacy of 159 in Nup98-NSD1 leukemia model. A. Pharmacokinetics studies in mice treated with 25 mg/kg of 159 using I.P. administration. B. Efficacy in Nup98-NSD1 subcutaneous model. Mice were treated with 25 mg/kg q.d., I.P. C. Representative tumors from vehicle and 159 treated mice. […] E. Immuno-histochemistry analysis of H3K36me2 level in tumor samples of mice treated with vehicle (top) and 159 (bottom). […] F. Body weight of 159 treated animals.

MCF7 = experiment: MTT viability, 7 days treatment, MCF7; assay type: cell-based; conditions: Homo sapiens, 168 h, MCF7, 7 days treatment
Description: (§2) FIG. 8. Activity of NSD inhibitors in breast cancer cell lines.

ZR-75-1 = experiment: MTT viability, 7 days treatment, ZR-75-1; assay type: cell-based; conditions: Homo sapiens, 168 h, ZR-75-1, 7 days treatment
Description: as §2

MDA-MB-468 = experiment: MTT viability, 7 days treatment, MDA-MB-468; assay type: cell-based; conditions: Homo sapiens, 168 h, MDA-MB-468, 7 days treatment
Description: as §2

SUM44 = experiment: Viability, 7 days treatment, SUM44; assay type: cell-based; conditions: 168 h; SUM44, 7 days treatment
Description: as §2

CC1CN1c1cc(O)c2nc(N)sc2c1 (stereo not shown) [Compound 151]
Irreversible binding to NSD1 detected by MS (NSD1 [1]; 10 μM compound incubated with NSD1 for 20 h): Irreversible binding | HSQC spectrum perturbation of NSD1 residues (NSD1 [2]): Several perturbed residues

Nc1nc2c(O)cc(N3CC3Cc3ccccc3Cl)cc2s1 (stereo not shown) [Compound 159, 2-Amino-6-(2-(2-chlorobenzyl)aziridin-1-yl)benzo[d]thiazol-4-ol]
Covalent engagement of NSD1 by mass spectrometry (NSD1 [1]; 6 μM compound incubated with 1 mM of NSD1 SET domain for 8 hours): binds covalently | CETSA stabilization of NSD1 (1753-2095 fragment) [3]: stabilization of NSD1 | Growth inhibition of Nup98-NSD1 cells (MTT) (Nup98-NSD1 cells [4]): time-dependent (3, 7 and 10 days) growth inhibition | Proliferation of control HM-2 cells (MTT) (HM-2 cells): does not inhibit proliferation | Differentiation of Nup98-NSD1 cells (cytospins) (Nup98-NSD1 cells [5]): differentiation of Nup98-NSD1 cells induced | Expression of Hoxa7 in tumors [6]: reduced expression of Hoxa7 | H3K36me2 level in tumor samples (immuno-histochemistry) [6]: Strong reduction of H3K36me2 level

C=CS(=O)(=O)NCc1cccc(NCC#Cc2cc(O)c3nc(N)sc3c2)c1F [Compound 225]
GI50 (MCF7; read-out: GI50, viability): 0.487 µM | GI50 (ZR-75-1; read-out: GI50, viability): 0.053 µM | GI50 (MDA-MB-468; read-out: GI50, viability): 0.031 µM | GI50 (SUM44): 0.341 µM

C=CS(=O)(=O)NCc1cccc(NCC#Cc2cc(O)c3nc(N)sc3c2)c1Cl [Compound 230]
GI50 (MCF7; read-out: GI50, MTT viability): 1.5 µM | GI50 (ZR-75-1; read-out: GI50, MTT viability): 0.1 µM | GI50 (MDA-MB-468; read-out: GI50, MTT viability): 0.035 µM
